Experimental findings from the Bradley open melting point set (2014) are described below.

“And” between values parts separate entries of the source, which are not always exact repeats. Identical values can stand only once. Counter-ions that a name gives are not always drawn.

In general, melting point refers to the temperature, or range, at which the solid turns liquid.

As for `CC(=O)Nc1ccc2c(c1)NC(=O)C2` [N-(2-oxo-2,3-dihydro-1H-indol-6-yl)acetamide], the melting point was determined as 335 °C. The result for `Nc1ccc([N+](=O)[O-])cc1C(=O)c1ccccc1` [2-amino-5-nitrobenzophenone] reads 167 °C. The result for `Cc1ccccc1-c1nnn[nH]1` [5-(2-methylphenyl)-1h-tetrazole] reads 153 °C. On to `Cc1cc(CCl)c(C)cc1CCl` [2,5-Di(Chloromethyl)-p-xylene], for which the melting point was determined as 132 °C. Turning to `O=C(O)c1ccc(Br)cc1` [4-bromobenzoic acid], the melting point amounted to 256 °C. With `CC(C)(C)OC(=O)N1CCNCC1` [1-boc-piperazine], the melting point worked out at 46 °C. The result for `CC(=O)c1cccc2ccccc12` [1-acetylnaphthalene] reads 10 °C; that for `CC1=CCC(C(C)(C)O)CC1` (stereo not drawn) [alpha-terpineol], 32 °C; that for `COC(=O)c1ccc(O)cc1` [methyl p-hydroxybenzoate], 131 °C. The result for `CN(C)c1ccc(/C=C(/C#N)c2nc(-c3ccc(Cl)cc3)cs2)cc1` reads 134 °C. The result for `C=Cc1ccc(C)cc1` [4-methylstyrene] reads -34 °C; that for `CC(C)Br` [2-bromopropane], -89 °C; that for `O=C(O)[C@@H]1CCCN1` [proline], 221 °C. Turning to `COC(=O)C1(C)C(C(C)=O)=Nc2ccccc21` (stereo not drawn) [methyl 2-acetyl-3-methyl-3H-indole-3-carboxylate], the melting point stood at 103 °C.

Compound `OB(O)c1c(Cl)cccc1Cl` [2,6-dichlorobenzeneboronic acid] showed a melting point of 152 °C. As for `C[C@@H]1C[C@@H]([C@H](O)CC2CC(=O)NC(=O)C2)C(=O)[C@@H](C)C1`, the figure is 120 °C; as for `CN=C=S` [Isothiocyanatomethane], 35 °C. The result for `OC1CC2=C(CC=CC2)CC1O` (stereo not drawn) [1,2,3,4,5,8-hexahydronaphthalene-2,3-diol] reads 121 °C; that for `c1ccc(P(CCCP(c2ccccc2)c2ccccc2)c2ccccc2)cc1` [1,3-bis(diphenylphosphino)propane], 61 °C; that for `CC(=O)c1cccc(C(C)=O)c1` [1,3-diacetylbenzene], 36 °C. As to `CC(C)NCC(O)COc1cccc2ccccc12` (stereo not drawn) [propranolol], the melting point was found to be 162 °C.

`c1ccc2c(c1)c1ccccc1c1ccccc21` [Triphenylene] displayed a melting point of 197 °C. In the case of `Brc1cc(Br)c(Br)cc1Br` [1,2,4,5-tetrabromobenzene], the melting point is 182 °C. Compound `O=C(O)c1ccc(Cl)cc1Cl` [2,4-dichlorobenzoic_acid] showed a melting point of 159 °C. The compound `OCCCCCCCCCCc1ccccc1` [10-Phenyldecan-1-ol] registered a melting point of 36 °C. The result for `COc1ccc(O)cc1` [4-methoxyphenol] reads 56 °C and 57 °C; that for `COc1nc(N)nc(SC)n1` [2-amino-4-methoxy-6-(methylthio)-1,3,5-triazine], 201 °C. As for `C=CCCCCCCCC` [Dec-1-ene], the figure is -66 °C; as for `CC(C)CCCCCCCOC(=O)c1ccccc1C(=O)OCCCCCCCC(C)C` [Bis(8-methylnonyl) phthalate], -50 °C.

As to `COC(=O)/C=C/C(=O)OC` [dimethyl fumarate], the melting point amounted to 104 °C.

Turning to `CC1(C)CC(=O)CC(=O)C1` [5,5-Dimethylcyclohexane-1,3-dione], the melting point was 148 °C. The result for `CC(C)Cc1ccc(C(C)C(=O)O)cc1` (stereo not drawn) [4-isobutyl-alpha-methylphenylacetic acid] reads 77 °C; that for `N=C(N)Nc1nc(CSCCC(=N)NS(N)(=O)=O)cs1` [famotidine], 164 °C. As for `CC12CCC3C(CCC4CC(=O)CCC43C)C1CCC2O` (stereo not drawn) [17-hydroxyandrostan-3-one], the figure is 121 °C.

As for `C[C@H]1c2cccc(O)c2C(=O)C2=C(O)[C@]3(O)C(=O)C(C(N)=O)=C(O)[C@@H](N(C)C)[C@@H]3[C@@H](O)[C@@H]21` [Doxycycline], the melting point is 201 °C. As for `Clc1ccc(COC(Cn2ccnc2)c2ccc(Cl)cc2Cl)cc1` (stereo not drawn) [econazole], the figure is 87 °C; as for `C/C=C\c1ccccc1` [cis-1-phenyl-1-propene], -62 °C. In the case of `CCOC(=O)c1ccc(N=C=S)cc1` [4-(ethoxycarbonyl)phenyl isothiocyanate], the melting point was 54 °C. `OCc1cccc(CO)c1` [1,3-benzenedimethanol] yielded a melting point of 58 °C. Consider `C[C@]12C[C@H](O)[C@H]3[C@@H](CCC4=CC(=O)CC[C@@]43C)[C@@H]1CC[C@@H]2C(=O)CO` [corticosterone], for which the melting point was found to be 145 °C.

Turning to `OCC(O)C(O)CO` (stereo not drawn) [meso-erythritol], the melting point came to 122 °C.

Consider `Cc1c(N)c(=O)n(-c2ccccc2)n1C` [4-aminoantipyrine], for which the melting point was 108 °C. `OC(c1ccccc1)c1ccccc1` [Diphenylmethanol]: the melting point came to 66 °C. As for `C=C(C)c1ccccc1` [alpha-methylstyrene], the figure is -23 °C; as for `Cc1cccc(C)n1` [2,6-Dimethylpyridine], -6 °C. The result for `COc1ccc(S(N)(=O)=O)cc1` [4-methoxybenzenesulfonamide] reads 112 °C.

`Cc1cccc2c1Cc1ccccc1-2` [1-Methylfluorene] came in with a melting point of 85 °C. As for `C[Si](C)(C)Cl` [Chloro(trimethyl)silane], the figure is -58 °C; as for `O=CCCCC=O` [glutaraldehyde], -21 °C.

Compound `O=C(O)CSc1nnc(S)s1` [(5-mercapto-1,3,4-thiadiazol-2-ylthio)acetic acid] showed a melting point of 167 °C.

Turning to `CCCCCCCCCCN` [1-aminodecane], the melting point was determined as 16 °C. As for `O=[N+]([O-])c1ccccc1CO` [2-nitrobenzyl alcohol], the figure is 72 °C; as for `O=C(O)c1ccc(Cl)c(Cl)c1` [3,4-Dichlorobenzoic acid], 208 °C. As for `CCCc1ccc(C(=O)Oc2ccc(C#N)cc2)cc1` [4-cyanophenyl 4-n-propylbenzoate], the figure is 102 °C. Compound `CC(=O)C(=Cc1ccc(-c2ccccc2[N+](=O)[O-])o1)C(C)=O` [3-{[5-(2-nitrophenyl)-2-furyl]methylene}pentane-2,4-dione] returned a melting point of 128 °C. Regarding `CCOC(=O)/C(C#N)=N\Nc1cccc([N+](=O)[O-])c1` [Ethyl (2Z)-cyano[(3-nitrophenyl)hydrazono]acetate], the melting point came to 156 °C. The result for `O=C1Nc2ccccc2C[C@H]1c1ccccc1F` [3-(2-Fluorophenyl)-1,2,3,4-tetrahydro-2-quinolone] reads 191 °C; that for `CC(C)C#N` [isobutyronitrile], -72 °C. As for `CCCCc1ccccc1` [Butylbenzene], the figure is -88 °C; as for `c1ccc(CN(CC2=NCCN2)c2ccccc2)cc1` [antazoline], 120 °C; as for `Cc1ccc(C(=O)O)cc1` [4-Methylbenzoic acid], 180 °C. The compound `CCCCCCN` [1-hexylamine] gave a melting point of -19 °C. The result for `CCCCCCCCCc1ccc(O)cc1` [4-n-nonylphenol] reads 45 °C.
